According to PubChem BioAssay AID1259407 (Chemical Carcinogenesis Research Information System (CCRIS), 2018):
The source made the active and inactive calls. The rule behind the calls is not given here.

Tested on: CCRIS mutagenicity, Ames/micronucleus/aberration tests
Assay: CCRIS mutagenicity studies
[1] = Test System: AMES SALMONELLA TYPHIMURIUM, Strain/Indicator: TA97, Metabolic Activation: NONE, Method: STANDARD PLATE
[2] = Test System: AMES SALMONELLA TYPHIMURIUM, Strain/Indicator: TA98, Metabolic Activation: NONE, Method: STANDARD PLATE
[3] = Test System: AMES SALMONELLA TYPHIMURIUM, Strain/Indicator: TA100, Metabolic Activation: NONE, Method: STANDARD PLATE
[4] = Test System: AMES SALMONELLA TYPHIMURIUM, Strain/Indicator: TA102, Metabolic Activation: NONE, Method: STANDARD PLATE
[5] = Test System: AMES SALMONELLA TYPHIMURIUM, Strain/Indicator: TA1535, Metabolic Activation: NONE, Method: STANDARD PLATE
[6] = Test System: AMES SALMONELLA TYPHIMURIUM, Strain/Indicator: TA102, Metabolic Activation: RAT, LIVER, S-9, AROCLOR 1254, Method: STANDARD PLATE

Measured: mutagenic call

O=C([O-])[O-].[Mn+2]
inactive: Test System: AMES SALMONELLA TYPHIMURIUM, Strain/Indicator: TA97, Metabolic Activation: NONE, Method: PREINCUBATION inactive; negative | Test System: AMES SALMONELLA TYPHIMURIUM, Strain/Indicator: TA97, Metabolic Activation: S-9, Method: PREINCUBATION inactive; negative | Test System: AMES SALMONELLA TYPHIMURIUM, Strain/Indicator: TA102, Metabolic Activation: NONE, Method: PREINCUBATION inactive; negative | Test System: AMES SALMONELLA TYPHIMURIUM, Strain/Indicator: TA102, Metabolic Activation: S-9, Method: PREINCUBATION inactive; negative

CC(C)CCC[C@@H](C)[C@H]1CC[C@H]2[C@@H]3C[C@@H]4O[C@@]45C[C@@H](O)CC[C@]5(C)[C@H]3CC[C@]12C
inactive: [1] inactive; negative | [2] inactive; negative | [3] inactive; negative | [4] inactive; negative | [5] inactive; negative | Test System: CHINESE HAMSTER V-79, Strain/Indicator: V-79/OUABAIN, Metabolic Activation: NONE inactive; negative | Test System: Mouse lymphoma, Strain/Indicator: L5178Y (tk+/tk-), Metabolic Activation: Rat, Liver, S-9, Aroclor 1254, Method: Suspension/plate inactive; inconclusive (previous evaluation negative)
active: Test System: AMES SALMONELLA TYPHIMURIUM, Strain/Indicator: TA1538, Metabolic Activation: RAT, LIVER, S-9, AROCLOR 1254 (10%), Method: STANDARD PLATE active; positive | Test System: CHINESE HAMSTER V-79, Strain/Indicator: V-79/6-THIOGUANINE, Metabolic Activation: NONE active; positive | Test System: CHINESE HAMSTER V-79, Strain/Indicator: V-79/8-AZAGUANINE, Metabolic Activation: NONE active; positive | Test System: MOUSE LYMPHOMA, Strain/Indicator: L5178Y (TK+/TK-), Metabolic Activation: NONE, Method: SUSPENSION/PLATE active; positive. reevaluation of results: equivocal

NNC(=O)c1ccncc1
active: Test System: AMES SALMONELLA TYPHIMURIUM, Strain/Indicator: G46, Metabolic Activation: HAMSTER, LIVER, HOMOGENATE, Method: PREINCUBATION active; positive | Test System: AMES SALMONELLA TYPHIMURIUM, Strain/Indicator: G46, Metabolic Activation: MOUSE, LIVER, HOMOGENATE, Method: PREINCUBATION active; positive | Test System: AMES SALMONELLA TYPHIMURIUM, Strain/Indicator: G46, Metabolic Activation: RAT, LIVER, HOMOGENATE, Method: PREINCUBATION active; positive | Test System: AMES SALMONELLA TYPHIMURIUM, Strain/Indicator: TA92, Metabolic Activation: NONE, Method: STANDARD PLATE active; positive | [3] active; positive | Test System: AMES SALMONELLA TYPHIMURIUM, Strain/Indicator: TA1535, Metabolic Activation: HAMSTER, LIVER, HOMOGENATE, Method: PREINCUBATION active; positive | Test System: AMES SALMONELLA TYPHIMURIUM, Strain/Indicator: TA1535, Metabolic Activation: MOUSE, LIVER, HOMOGENATE, Method: PREINCUBATION active; positive | [5] active; positive | Test System: AMES SALMONELLA TYPHIMURIUM, Strain/Indicator: TA1535, Metabolic Activation: RAT, LIVER, HOMOGENATE, Method: PREINCUBATION active; positive
inactive: Test System: AMES SALMONELLA TYPHIMURIUM, Strain/Indicator: G46, Metabolic Activation: HAMSTER, LIVER, HOMOGENATE (HEAT-INACTIVATED), Method: PREINCUBATION inactive; negative | Test System: AMES SALMONELLA TYPHIMURIUM, Strain/Indicator: G46, Metabolic Activation: NONE, Method: STANDARD PLATE inactive; negative | Test System: AMES SALMONELLA TYPHIMURIUM, Strain/Indicator: TA100, Metabolic Activation: MOUSE, LIVER, S-9, Method: STANDARD PLATE inactive; negative | [6] inactive; negative | Test System: AMES SALMONELLA TYPHIMURIUM, Strain/Indicator: TA1535, Metabolic Activation: HAMSTER, LIVER, HOMOGENATE (HEAT-INACTIVATED), Method: PREINCUBATION inactive; negative | Test System: AMES SALMONELLA TYPHIMURIUM, Strain/Indicator: TA1535, Metabolic Activation: MOUSE, LIVER, POSTMITOCHONDRIAL SUPERNATANT, Method: PREINCUBATION inactive; negative | Test System: AMES SALMONELLA TYPHIMURIUM, Strain/Indicator: TA1535, Metabolic Activation: MOUSE, LIVER, S-9, Method: PREINCUBATION inactive; negative

COCC=O
active: Test System: AMES SALMONELLA TYPHIMURIUM, Strain/Indicator: TA97A, Metabolic Activation: NONE, Method: STANDARD PLATE active; positive | Test System: AMES SALMONELLA TYPHIMURIUM, Strain/Indicator: TA97A, Metabolic Activation: RAT, LIVER, S-9, AROCLOR 1254, Method: STANDARD PLATE active; positive | Test System: CHINESE HAMSTER OVARY, Strain/Indicator: CHO AS52 (GPT)/6-THIOGUANINE, Metabolic Activation: NONE active; positive | Test System: CHINESE HAMSTER OVARY, Strain/Indicator: CHO-AS52/6-THIOGUANINE, Metabolic Activation: NONE active; positive | Test System: CHINESE HAMSTER V-79, Strain/Indicator: V-79 (HPRT)/6-THIOGUANINE, Metabolic Activation: NONE active; positive
inactive: [2] inactive; negative | Test System: AMES SALMONELLA TYPHIMURIUM, Strain/Indicator: TA98, Metabolic Activation: RAT, LIVER, S-9, AROCLOR 1254, Method: STANDARD PLATE inactive; negative | [3] inactive; negative | Test System: AMES SALMONELLA TYPHIMURIUM, Strain/Indicator: TA100, Metabolic Activation: RAT, LIVER, S-9, AROCLOR 1254, Method: STANDARD PLATE inactive; negative | [4] inactive; negative | [6] inactive; negative | Test System: CHINESE HAMSTER OVARY, Strain/Indicator: CHO-K1-BH4 (HGPRT)/6-THIOGUANINE, Metabolic Activation: NONE inactive; negative | Test System: CHINESE HAMSTER OVARY, Strain/Indicator: CHO-K1-BH4 (HGPRT)/6-THIOGUANINE, Metabolic Activation: RAT, LIVER, S-9, AROCLOR 1254 inactive; negative

CN(C)c1ccc(CCO)cc1
inactive: Test System: Mouse lymphoma, Strain/Indicator: L5178Y (tk+/tk-), Metabolic Activation: None, Method: Suspension/plate inactive; negative
active: Test System: AMES SALMONELLA TYPHIMURIUM, Strain/Indicator: TA98, Metabolic Activation: HAMSTER, LIVER, S-9, AROCLOR 1254 (5, 10, 20%), Method: STANDARD PLATE active; positive | Test System: AMES SALMONELLA TYPHIMURIUM, Strain/Indicator: TA98, Metabolic Activation: RAT, LIVER, S-9, AROCLOR 1254 (20%), Method: STANDARD PLATE active; positive | Test System: AMES SALMONELLA TYPHIMURIUM, Strain/Indicator: TA98, Metabolic Activation: RAT, LIVER, S-9, AROCLOR 1254, HAMSTER, LIVER, S-9, AROCLOR 1254, Method: STANDARD PLATE active; positive | Test System: AMES SALMONELLA TYPHIMURIUM, Strain/Indicator: TA1538, Metabolic Activation: HAMSTER, LIVER, S-9, AROCLOR 1254 (2.5-20%), Method: STANDARD PLATE active; positive | Test System: AMES SALMONELLA TYPHIMURIUM, Strain/Indicator: TA1538, Metabolic Activation: RAT, LIVER, S-9, AROCLOR 1254 (5, 10, 20%), Method: STANDARD PLATE active; positive | Test System: AMES SALMONELLA TYPHIMURIUM, Strain/Indicator: TA1538, Metabolic Activation: RAT, LIVER, S-9, AROCLOR 1254, HAMSTER, LIVER, S-9, AROCLOR 1254, Method: STANDARD PLATE active; positive | Test System: MOUSE LYMPHOMA, Strain/Indicator: L5178Y (TK+/TK-), Metabolic Activation: RAT, LIVER, S-9, AROCLOR 1254, Method: SUSPENSION/PLATE active; positive. reevaluation of results: inconclusive

O=Nc1c2ccccc2c2ccc3cccc4ccc1c2c43
active: [1] active; positive | Test System: AMES SALMONELLA TYPHIMURIUM, Strain/Indicator: TA98 (1,8-DNP6), Metabolic Activation: NONE, Method: STANDARD PLATE active; positive | Test System: AMES SALMONELLA TYPHIMURIUM, Strain/Indicator: TA98 (NR), Metabolic Activation: NONE, Method: STANDARD PLATE active; positive | Test System: AMES SALMONELLA TYPHIMURIUM, Strain/Indicator: TA98, Metabolic Activation: NONE', Method: STANDARD PLATE active; positive | [2] active; positive | [3] active; positive | Test System: AMES SALMONELLA TYPHIMURIUM, Strain/Indicator: TA104, Metabolic Activation: NONE, Method: STANDARD PLATE active; positive | Test System: CHINESE HAMSTER OVARY, Strain/Indicator: CHO-K1-BH4 (HGPRT), Metabolic Activation: NONE active; positive
